# In the supplement of paper PMC10307832:
# Experiments:
# Assay in all cases: relative viability (nuclei count vs DMSO), 5 days (fraction); higher = more cells survive
# IPA-3 + Navitoclax = compound: C1=CC=C2C(=C1)C=CC(=C2SSC3=C(C=CC4=CC=CC=C43)O)O [IPA-3] + CC1(C)CCC(c2ccc(Cl)cc2)=C(CN2CCN(c3ccc(C(=O)NS(=O)(=O)c4ccc(N[C@H](CCN5CCOCC5)CSc5ccccc5)c(S(=O)(=O)C(F)(F)F)c4)cc3)CC2)C1 [Navitoclax] (partner 0.5 µM)
# Summary of the method: (§1)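 Relative viability is defined as nuclei in treated wells over nuclei in vehicle wells. Duplicate plates were run and medians reported. Lung cancer cell lines in 1536-well plates were dosed by pin tool one day after seeding, with one drug or with a fixed anchor-drug dose plus five library-drug doses (not always all listed) in √10 steps, and nuclei were counted after 5 days.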
# Doramapimod + Luminespib = compound: Cc1ccc(-n2nc(C(C)(C)C)cc2NC(=O)Nc2ccc(OCCN3CCOCC3)c3ccccc23)cc1 [Doramapimod] + CCNC(=O)c1noc(-c2cc(C(C)C)c(O)cc2O)c1-c1ccc(CN2CCOCC2)cc1 [Luminespib] (partner 0.01 µM)
# Summary of the method: as §1
# Doramapimod + Pictilisib = compound: Cc1ccc(-n2nc(C(C)(C)C)cc2NC(=O)Nc2ccc(OCCN3CCOCC3)c3ccccc23)cc1 [Doramapimod] + CS(=O)(=O)N1CCN(Cc2cc3nc(-c4cccc5[nH]ncc45)nc(N4CCOCC4)c3s2)CC1 [Pictilisib] (partner 1 µM)
# Summary of the method: as §1
Cell Line,relative viability (IPA-3 + Navitoclax; first compound 0.2 µM),relative viability (IPA-3 + Navitoclax; first compound 0.6325 µM),relative viability (IPA-3 + Navitoclax; first compound 2 µM),relative viability (IPA-3 + Navitoclax; first compound 6.325 µM),relative viability (IPA-3 + Navitoclax; first compound 20 µM),relative viability (Doramapimod + Luminespib; first compound 0.02 µM),relative viability (Doramapimod + Luminespib; first compound 0.06325 µM),relative viability (Doramapimod + Luminespib; first compound 0.2 µM),relative viability (Doramapimod + Luminespib; first compound 0.6325 µM),relative viability (Doramapimod + Luminespib; first compound 2 µM),relative viability (Doramapimod + Pictilisib; first compound 0.02 µM),relative viability (Doramapimod + Pictilisib; first compound 0.06325 µM),relative viability (Doramapimod + Pictilisib; first compound 0.2 µM),relative viability (Doramapimod + Pictilisib; first compound 0.6325 µM),relative viability (Doramapimod + Pictilisib; first compound 2 µM)
EMC-BAC-2,1.38,1.11,1.16,1.09,1.32,1.28,1.17,1.12,1.22,1.15,0.542,0.468,0.51,0.741,0.513
EPLC-272H,1.25,1.4,1.16,1.21,1.18,0.368,0.296,0.741,0.494,0.187,0.344,0.418,0.377,0.296,0.275
H3255,0.543,0.523,0.446,0.566,0.603,0.947,0.844,0.843,0.686,0.697,0.485,0.495,0.466,0.545,0.414
HARA,1.18,1.09,1.12,1.01,1.2,0.779,0.688,0.873,,0.576,0.281,0.347,0.273,0.503,0.302
HCC-15,0.693,0.65,0.642,0.725,0.748,0.472,0.425,0.444,,0.201,0.728,0.684,0.8,0.359,0.689
HCC-44,1.11,0.969,0.977,1,0.942,1.06,1.05,1,1.24,0.983,1.46,0.58,0.546,0.581,0.35
HCC-78,0.915,0.75,0.706,0.764,1.01,,,,,,0.224,0.208,0.224,0.173,0.184
HCC-366,1.18,1.01,1.19,1.03,1.18,,,,,,0.15,0.137,0.131,0.125,0.136
HCC-827,1.01,1.01,1,0.99,0.993,0.569,0.611,0.751,0.831,0.625,1.15,0.972,1.06,0.933,0.738
HOP-62,1.08,0.9,1,0.943,1.34,0.957,1.04,1.07,0.931,0.797,0.761,0.714,0.742,0.463,0.438
IA-LM,0.793,0.683,0.765,0.601,0.392,,,,,,0.176,0.257,,0.343,0.288
LC-2-ad,0.526,0.334,0.444,0.454,0.685,1.02,1.03,1.09,1.15,0.984,0.303,0.429,0.605,0.537,0.267
